Values joined by “and” are separate entries in the source; they are usually repeats but may differ in a detail not shown here. Equal values may be shown once.
What was measured:
[1] = system: Sweet potatoes (cv. Covington); assay: Sweet potato field trial, yield; assay type: in vivo
Experimental: (§1) Location: The field trial was conducted on a farm in Woodington, NC. The field was confirmed positive for Meloidogyne enterolobii through NCDA Nematode Assay Lab analysis.
(§2) Trial set-up: Sweet potatoes (cv. Covington) were planted at 11 inch within row spacing and 42 inch rows. Plots were 4 rows wide by 10 ft long, with 10 feet between plots. Plots were maintained by the grower collaborator using standard agronomic practices. Vigor data, soil samples for mid-season nematode counts, and harvest data was collected. At harvest, the middle two rows of each plot were dug by hand and tubers assessed. Data were analyzed, plotted, and effect of treatment on yield and nematode variables was assessed through mean separation in R (v. 3.6.2).
Formulations and Application rates: Six different wrap and plant formulations and 2 control treatment were tested.
For each plot the tuber were collect and sorted into 2 groups: #1 grade and cutters/jumbos. In addition, the number of #1 tubers were counted.

Root Knot Nematode = assay: Sweet potato field trial, root knot nematode count at harvest; assay type: in vivo, Meloidogyne enterolobii
Experimental: as §1, §2
(§3) At harvest a soil sample from each plot was collected and 100 cc of soil extracted to determine nematode populations. Three genera of nematode were observed (RKN, stunt and lesion). Counts for the two highest population species, RKN and Lesion at the harvest sampling are reported per 100 g of soil. Population counts of RKN, lesion, and stunt nematode were transformed (log 10(n+1)) prior to analysis to fit assumptions of normality.

Lesion Nematode = assay: Sweet potato field trial, lesion nematode count at harvest; assay type: in vivo
Experimental: as §1, §2, §3

O=C(NCCc1ncc(C(F)(F)F)cc1Cl)c1ccccc1C(F)(F)F [Treatment 3, Fluopyram]
Average Total Yield ([1]; Table 12): 22.1 | Yield #1 Tubers, Average ([1]; average of 4 plots): 9.8 kg | No. of #1 tubers ([1]; single plot): 32 and 36 and 30 and 38 | Total Yield ([1]; single plot): 22.8 kg and 28.05 kg and 20.9 kg and 16.8 kg | Yield of #1 ([1]; single plot): 9.35 kg and 12.15 kg and 9.75 kg and 8.1 kg | Yield of Jumbo & Canners ([1]; single plot): 13.45 kg and 15.9 kg and 11.15 kg and 8.7 kg | Yield #1 Tubers ([1]; single plot, Table 10, listed as Grower Standard): 8.1 kg and 9.4 kg and 12.2 kg and 9.8 kg | Average RKN Population at Harvest (Root Knot Nematode; Table 12): 12.5 /100 cc soil | RKN Population, Average (Root Knot Nematode; average of 4 plots): 12.5 | Average Lesion Population at Harvest (Lesion Nematode; Table 12): 118.75 /100 cc soil | Lesion Population, Average (Lesion Nematode; average of 4 plots): 118.75

From patent US20230389543A1, “SOLID PHASE MATRIX FOR CROP PROTECTION” (North Carolina State University, priority 2020, published 2023)
